Reference: patent publication US4110327A, “2,3 Diketo-piperazinocarbonylamino alkanoic acids and derivatives” (Toyama Chemical Co., Ltd., priority 1974, dated 1978)
≈ marks a conversion by molar mass, not a printed value.

Key:
Escherichia coli = assay: MIC against clinical isolates; format: cell-based; settings: unit assumed
Proteus morganii = assay: MIC against clinical isolates; format: cell-based; settings: clinical isolate, unit assumed
Klebsiella pneumoniae [1] = assay: MIC against standard strain, plate method; format: cell-based; settings: unit assumed
Summary of the method: (§1)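 Plate-method MIC. Medium: heart infusion agar, pH 7.4. Inoculum: 10^4 cells per plate (10^6 cells/ml).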

[2] = system: Pseudomonas aeruginosa I.F.O.; assay: MIC against standard strain, plate method; format: cell-based; settings: unit assumed
Summary of the method: as §1

[3] = system: Staphylococcus aureus 209p; assay: MIC against standard strain, plate method; format: cell-based; settings: unit assumed
Summary of the method: as §1

Proteus vulgaris 3027 = assay: MIC against standard strain, plate method; format: cell-based; settings: Proteus vulgaris 3027, standard strain; unit assumed
Summary of the method: as §1

Escherichia coli NIHJ = assay: MIC against standard strain, plate method; format: cell-based; settings: unit assumed
Summary of the method: as §1

Klebsiella pneumoniae [4] = assay: MIC against clinical isolates; format: cell-based; settings: unit assumed
Pseudomonas aeruginosa = assay: MIC against clinical isolates; format: cell-based; settings: unit assumed
Proteus mirabilis = assay: MIC against clinical isolates; format: cell-based; settings: clinical isolate, unit assumed
Staphylococcus aureus = assay: MIC against clinical isolates; format: cell-based; settings: unit assumed
Proteus vulgaris = assay: MIC against clinical isolates; format: cell-based; settings: clinical isolate, unit assumed
Proteus rettgeri = assay: MIC against clinical isolates; format: cell-based; settings: clinical isolate, unit assumed
β-lactamase = assay: Resistant activity against β-lactamase, iodometric assay; format: biochemical, Pseudomonas aeruginosa GN 238; settings: relative to Potassium Penicillin G = 100
Procedure: (3) Resistant activity against β-lactamase, Pseudomonas aergionan GN 238:
The resistant activity of each compound against β-lactamase was measured in the manner described below.
β-Lactamase was prepared from Pseudomonas aeruginosa GN 238. This microorganism was cultured in 100 ml of a medium containing 2 g of yeast extract, 10 g of polypeptone, 2 g of glucose, 7 g of disodium hydrogen phosphate, 2 g of potassium dihydrogen phosphate, 1.2 g of ammonium sulfate and 0.4 g of magnesium sulfate, per liter, in a 500-ml Erlenmeyer flask for 6 hrs. at 37° C with shaking. The resulting cells were collected by centrifugation (5,000 r.p.m. × 10 min.), washed three times with 0.1 M phosphate buffer (pH 7.0). Subsequently, the cells were subjected to sonication (20 KHz, 20 min.) and then centrifuged at 15,000 r.p.m. for 60 min. By using the supernatant of enzyme fluid, the resistance of each compound against β-lactamase was determined by the iodometric assay method. Each numeral shown in Table 7 is a relative activity value calculated by assuming as 100 the activity of the control Potassium Penicillin G.

Shigella flexneri = assay: MIC against clinical isolates; format: cell-based; settings: unit assumed
Procedure: (§2) The minimum inhibitory concentrations (MIC) was determined by the plate method disclosed in "Chemotherapy" (Japan), Vol. 16, (1968), pages 98 - 99. The culture medium used was a Heart infusion agar (pH 7.4). The number of the cells per plate used in the inoculum as 10^4 (10^6 cells/ml).
(§3) MIC was determined in the same manner as in the preceding paragraph (1).

Shigella sonnei = assay: MIC against clinical isolates; format: cell-based; settings: unit assumed
Procedure: as §2, §3

Salmonella typhi = assay: MIC against clinical isolates; format: cell-based; settings: unit assumed
Salmonella typhi-murium = assay: MIC against clinical isolates; format: cell-based; settings: unit assumed
[5] = clinical isolate GN (number not given; Table 5-3)

CC1(C)S[C@@H]2[C@H](NC(=O)C(C(=O)O)c3ccccc3)C(=O)N2[C@H]1C(=O)O (stereo partly drawn) [Sodium Carbenicillin, SodiumCarbenicillin, reference compound]
MIC (Escherichia coli; clinical isolate GN 3465): > 200 µg/mL | MIC (Escherichia coli; clinical isolate GN 3611): > 200 µg/mL | MIC (Escherichia coli; clinical isolate K-3): > 200 µg/mL | MIC (Proteus morganii): 0.4 µg/mL | MIC (Klebsiella pneumoniae [1]): > 200 µg/mL | MIC [2]: 50 µg/mL | MIC [3]: < 1.57 µg/mL | MIC (Proteus vulgaris 3027): < 1.57 µg/mL | MIC (Escherichia coli NIHJ): < 1.57 µg/mL | MIC (Klebsiella pneumoniae [4]; clinical isolate GN 917): > 200 µg/mL | MIC (Klebsiella pneumoniae [4]; clinical isolate GN 4081): > 200 µg/mL | MIC (Klebsiella pneumoniae [4]; clinical isolate GN 4117): > 200 µg/mL | MIC (Pseudomonas aeruginosa; clinical isolate GN 82): 100 µg/mL | MIC (Pseudomonas aeruginosa; clinical isolate GN 163): 50 µg/mL | MIC (Pseudomonas aeruginosa; clinical isolate GN 221): 25 µg/mL | MIC (Pseudomonas aeruginosa; clinical isolate GN 376): 50 µg/mL | MIC (Pseudomonas aeruginosa; clinical isolate GN 383): 30 µg/mL | MIC (Pseudomonas aeruginosa; clinical isolate GN 1035): > 200 µg/mL | MIC (Pseudomonas aeruginosa; clinical isolate GN 1091): 100 µg/mL | MIC (Pseudomonas aeruginosa; clinical isolate GN 2565): 200 µg/mL | MIC (Pseudomonas aeruginosa; clinical isolate GN 2987): 50 µg/mL | MIC (Pseudomonas aeruginosa; [5]): 50 µg/mL | MIC (Pseudomonas aeruginosa; clinical isolate S-1): 200 µg/mL | MIC (Pseudomonas aeruginosa; clinical isolate S-2): 200 µg/mL | MIC (Pseudomonas aeruginosa; clinical isolate S-3): 200 µg/mL | MIC (Pseudomonas aeruginosa; clinical isolate S-4): 200 µg/mL | MIC (Proteus mirabilis): 0.8 µg/mL | MIC (Staphylococcus aureus; clinical isolate F-5): > 200 µg/mL | MIC (Staphylococcus aureus; clinical isolate MS 8619): 0.79 µg/mL | MIC (Proteus vulgaris): 0.8 µg/mL | MIC (Proteus rettgeri): > 200 µg/mL | Relative activity (β-lactamase): 116%

CC1(C)S[C@@H]2[C@H](NC(=O)[C@H](N)c3ccccc3)C(=O)N2[C@H]1C(=O)O [Sodium Ampicillin, SodiumAmpicillin, reference compound]
MIC (Escherichia coli; clinical isolate GN 3452): 6.25 µg/mL | MIC (Escherichia coli; clinical isolate GN 3481): 6.25 µg/mL | MIC (Escherichia coli; clinical isolate GN 3611): > 200 µg/mL | MIC (Escherichia coli; clinical isolate K-1): 6.25 µg/mL | MIC (Escherichia coli; clinical isolate K-2): 6.25 µg/mL | MIC (Escherichia coli; clinical isolate K-3): > 200 µg/mL | MIC (Proteus morganii): < 1.57 µg/mL | MIC (Klebsiella pneumoniae [1]): 50 µg/mL | MIC [2]: > 200 µg/mL | MIC [3]: < 1.57 µg/mL | MIC (Proteus vulgaris 3027): > 200 µg/mL | MIC (Escherichia coli NIHJ): < 1.57 µg/mL | MIC (Shigella flexneri; clinical isolate JS 11839): 1.57 µg/mL | MIC (Shigella sonnei; clinical isolate JS 11232): > 200 µg/mL | MIC (Shigella sonnei; clinical isolate JS 11755): 6.25 µg/mL | MIC (Klebsiella pneumoniae [4]; clinical isolate GN 917): 25 µg/mL | MIC (Klebsiella pneumoniae [4]; clinical isolate GN 3850): 50 µg/mL | MIC (Klebsiella pneumoniae [4]; clinical isolate GN 4081): > 200 µg/mL | MIC (Klebsiella pneumoniae [4]; clinical isolate GN 4117): > 200 µg/mL | MIC (Salmonella typhi; clinical isolate SL 819): 1.56 µg/mL | MIC (Salmonella typhi; clinical isolate SL 2169): 0.78 µg/mL | MIC (Pseudomonas aeruginosa; clinical isolate GN 82): > 200 µg/mL | MIC (Pseudomonas aeruginosa; clinical isolate GN 163): > 200 µg/mL | MIC (Pseudomonas aeruginosa; clinical isolate GN 221): > 200 µg/mL | MIC (Pseudomonas aeruginosa; clinical isolate GN 376): > 200 µg/mL | MIC (Pseudomonas aeruginosa; clinical isolate GN 383): > 200 µg/mL | MIC (Pseudomonas aeruginosa; clinical isolate GN 1035): > 200 µg/mL | MIC (Pseudomonas aeruginosa; clinical isolate GN 1091): > 200 µg/mL | MIC (Pseudomonas aeruginosa; clinical isolate GN 2565): > 200 µg/mL | MIC (Pseudomonas aeruginosa; clinical isolate GN 2987): > 200 µg/mL | MIC (Pseudomonas aeruginosa; [5]): > 200 µg/mL | MIC (Pseudomonas aeruginosa; clinical isolate S-1): > 200 µg/mL | MIC (Pseudomonas aeruginosa; clinical isolate S-2): > 200 µg/mL | MIC (Pseudomonas aeruginosa; clinical isolate S-3): > 200 µg/mL | MIC (Pseudomonas aeruginosa; clinical isolate S-4): > 200 µg/mL | MIC (Proteus mirabilis): < 1.57 µg/mL | MIC (Salmonella typhi-murium; clinical isolate SL 858): 3.13 µg/mL | MIC (Salmonella typhi-murium; clinical isolate SL 2136): > 200 µg/mL | MIC (Staphylococcus aureus; clinical isolate F-2): 0.79 µg/mL | MIC (Staphylococcus aureus; clinical isolate F-5): 50 µg/mL | MIC (Staphylococcus aureus; clinical isolate MS 8588): 6.25 µg/mL | MIC (Staphylococcus aureus; clinical isolate MS 8619): < 0.4 µg/mL | MIC (Proteus vulgaris): < 1.5 µg/mL | MIC (Proteus rettgeri): 200 µg/mL

CC(C)N1CCN(C(=O)N[C@@H](C(=O)N[C@@H]2C(=O)N3[C@@H]2SC(C)(C)[C@@H]3C(=O)O)c2ccccc2)C(=O)C1=O (single isomer, unassigned) [compound 40]
MIC (Escherichia coli; clinical isolate GN 3435): 0.79 µg/mL (≈ 1.49 µM) | MIC (Escherichia coli; clinical isolate GN 3465): 50 µg/mL (≈ 94.1 µM) | MIC (Escherichia coli; clinical isolate GN 3611): > 200 µg/mL | MIC (Escherichia coli; clinical isolate K-2): 3.13 µg/mL (≈ 5.89 µM) | MIC (Escherichia coli; clinical isolate K-3): > 200 µg/mL | MIC (Escherichia coli; clinical isolate K-4): 0.79 µg/mL (≈ 1.49 µM) | MIC (Proteus morganii): 0.79 µg/mL (≈ 1.49 µM) | MIC (Klebsiella pneumoniae [1]): 3.13 µg/mL (≈ 5.89 µM) | MIC [3]: 0.4 µg/mL (≈ 0.752 µM) | MIC (Proteus vulgaris 3027): 0.4 µg/mL (≈ 0.752 µM) | MIC (Escherichia coli NIHJ): < 0.1 µg/mL | MIC (Shigella flexneri; clinical isolate JS 11215): 50 µg/mL (≈ 94.1 µM) | MIC (Shigella flexneri; clinical isolate JS 11839): 3.13 µg/mL (≈ 5.89 µM) | MIC (Shigella sonnei; clinical isolate JS 11232): 50 µg/mL (≈ 94.1 µM) | MIC (Shigella sonnei; clinical isolate JS 11755): 3.13 µg/mL (≈ 5.89 µM) | MIC (Klebsiella pneumoniae [4]; clinical isolate GN 3850): 12.5 µg/mL (≈ 23.5 µM) | MIC (Klebsiella pneumoniae [4]; clinical isolate GN 4081): 100 µg/mL (≈ 188 µM) | MIC (Klebsiella pneumoniae [4]; clinical isolate GN 4117): 50 µg/mL (≈ 94.1 µM) | MIC (Salmonella typhi; clinical isolate SL 819): 1.57 µg/mL (≈ 2.95 µM) | MIC (Salmonella typhi; clinical isolate SL 2169): 1.57 µg/mL (≈ 2.95 µM) | MIC (Pseudomonas aeruginosa; clinical isolate GN 376): 3.13 µg/mL (≈ 5.89 µM) | MIC (Pseudomonas aeruginosa; clinical isolate GN 1035): 25 µg/mL (≈ 47 µM) | MIC (Pseudomonas aeruginosa; clinical isolate GN 2565): 12.5 µg/mL (≈ 23.5 µM) | MIC (Pseudomonas aeruginosa; clinical isolate GN 2987): 3.13 µg/mL (≈ 5.89 µM) | MIC (Pseudomonas aeruginosa; clinical isolate S-1): 12.5 µg/mL (≈ 23.5 µM) | MIC (Pseudomonas aeruginosa; clinical isolate S-2): 25 µg/mL (≈ 47 µM) | MIC (Pseudomonas aeruginosa; clinical isolate S-3): 25 µg/mL (≈ 47 µM) | MIC (Pseudomonas aeruginosa; clinical isolate S-4): 12.5 µg/mL (≈ 23.5 µM) | MIC (Proteus mirabilis): < 0.4 µg/mL | MIC (Salmonella typhi-murium; clinical isolate SL 858): 6.25 µg/mL (≈ 11.8 µM) | MIC (Salmonella typhi-murium; clinical isolate SL 2136): > 200 µg/mL | MIC (Staphylococcus aureus; clinical isolate F-2): 3.13 µg/mL (≈ 5.89 µM) | MIC (Staphylococcus aureus; clinical isolate F-3): 0.79 µg/mL (≈ 1.49 µM) | MIC (Staphylococcus aureus; clinical isolate F-5): > 200 µg/mL | MIC (Staphylococcus aureus; clinical isolate MS 8588): 3.13 µg/mL (≈ 5.89 µM) | MIC (Staphylococcus aureus; clinical isolate MS 8596): 3.13 µg/mL (≈ 5.89 µM) | MIC (Staphylococcus aureus; clinical isolate MS 8619): 0.79 µg/mL (≈ 1.49 µM) | MIC (Staphylococcus aureus; clinical isolate MS 8684): 3.13 µg/mL (≈ 5.89 µM) | MIC (Staphylococcus aureus; clinical isolate MS 8713): 12.5 µg/mL (≈ 23.5 µM) | MIC (Proteus vulgaris): < 0.4 µg/mL | Relative activity (β-lactamase): 15%
